Laboratory results: article PMC2790607, “Finding of the Low Molecular Weight Inhibitors of Resuscitation Promoting Factor Enzymatic and Resuscitation Activity” (PLoS ONE, 2009)
≈ marks a conversion by molar mass, not a printed value. Like-named read-outs stand apart in the source and are kept apart here.

Tests used:
[1] = tested on: M. tuberculosis "non-culturable" cells; type: cell-based, Mycobacterium tuberculosis; conditions: for effect on resuscitation of M. tuberculosis "non-culturable" cells: 10 µg/ml, MPN assay, versus untreated resuscitating cells; for MPN, logarithmic transformation of cell concentration (cells/ml): inhibitor 10 µg/ml
Rpf Sm = molecular target: T1, Rpf Sm (Micrococcus luteus, UniProt O86308); test: Muralytic activity of Rpf, 4-MUF-3-NAG hydrolysis; type: biochemical, M. luteus
T1 construct: His-tag (inferred from the pET19b vector and the Ni2+-chelation purification); made in house; host or cells: E. coli HSM174 (DE3)
Protocol: The truncated form of M.luteus Rpf (RpfSm) was used for the analysis. The truncated protein contained conserved Rpf domain and additional 20 amino acids of the gene product, corresponding to the following amino acid sequence:
To determine a muralytic activity of the recombinant Rpfs', 4-methylumbelliferyl-β-D-N, N′, N″-triacetylchitotrioside (4-MUF-3-NAG) (“Sigma”, Germany) was applied. […] A number of experiments were performed in the presence of NPT compounds, in concentration range of 0.5–10 µg/ml. After 3 hours of incubation at 37°C, 2 µl of 10 M NaOH was added and the samples were frozen and kept at −20°C. […] The intensity of fluorescence was detected by the RF-5301PC fluorimeter (“SHIMADZU”, Japan) using excitation wavelength of 364 nm and a read-out of 448 nm.

Micrococcus luteus = test: microbe, parasite or virus in culture; type: cell-based; conditions: for effect on M. luteus growth: NB liquid medium; for MIC: Micrococcus luteus, lowest concentration which suppresses growth, determined during 24 hours, NI = no inhibition was observed
Trypsin(3.4.21.4) = test: Trypsin activity (fluorimetric); type: biochemical; conditions: control 10
Protocol: (§1) Alcoholdehydrohenase(1.1.1.1) activity: ADH was dissolved in 50 mM phospahe buffer pH 7 at the concentration 10 µg/ml. The rate of the reaction was judged by transformation of NAD^+ (1 mM) into NADH+H^+. As the substrate ethanol was used. Activity was measured by OD340. Laccase(1.10.3.2) activity: Laccase was dissolved in the 50 mM citrate-phosphate buffer, pH4.5 at concentration 9 µg/ml. Pyrocatechin was used at concentration 11 µg/ml. Activity was measured by OD410. Trypsin(3.4.21.4) activity: The enzyme at concentration 8.0 µg/ml was dissolved in 50 mM Tris-HCl buffer pH 8.0. Concentration of the substrate (N-CBz-Gly-Gly-Arg-β-naphthylamide - Sigma-Aldrich)- 11 µg/ml. Registration of the kinetic curves was made fluorimetrically - excitation wavelength - 330 nm; emission - 420 nm. (0.02 MB DOC) Click here for additional data file.

M. smegmatis = type: cell-based, Mycobacterium smegmatis; conditions: at 0.1–1 µg/ml (not shown)
[2] = tested on: Alcoholdehydrohenase(1.1.1.1); test: Alcoholdehydrogenase activity (NAD+ to NADH, OD340); type: biochemical; conditions: control 1.7
Protocol: as §1

[3] = tested on: M. smegmatis "non-culturable" cells; type: cell-based, Mycobacterium smegmatis; conditions: MPN assay
Laccase(1.10.3.2) = test: Laccase activity (pyrocatechin, OD410); type: biochemical; conditions: control 3.6
Protocol: as §1

ΔDUFRpf B = ΔDUFRpf B (Mycobacterium tuberculosis, UniProt P9WG29); type: binding, M. tuberculosis
[4] = pH 6.0, 3 hours at 37°C, NI = no inhibition was observed, read-out: 4-MUF-3-NAG hydrolysis IC50, Rpf Sm (converted)

T1 sequence (O86308 42-134): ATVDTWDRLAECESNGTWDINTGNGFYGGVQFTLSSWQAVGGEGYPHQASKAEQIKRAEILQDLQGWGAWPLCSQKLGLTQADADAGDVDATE
Chain of ΔDUFRpf B (P9WG29 whole entry, looked up, stated change not applied): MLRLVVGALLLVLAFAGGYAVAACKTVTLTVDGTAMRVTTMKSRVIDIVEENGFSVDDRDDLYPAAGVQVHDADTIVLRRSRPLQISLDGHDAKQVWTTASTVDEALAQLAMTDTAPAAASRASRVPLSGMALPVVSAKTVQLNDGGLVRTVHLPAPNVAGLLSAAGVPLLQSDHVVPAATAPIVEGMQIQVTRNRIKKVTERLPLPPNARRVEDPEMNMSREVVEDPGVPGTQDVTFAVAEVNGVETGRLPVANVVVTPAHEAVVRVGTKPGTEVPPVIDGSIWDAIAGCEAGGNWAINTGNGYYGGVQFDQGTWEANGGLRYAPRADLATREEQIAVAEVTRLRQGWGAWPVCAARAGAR

SMILES	effect on resuscitation of M. tuberculosis "non-culturable" cells [1]	IC50 (Rpf Sm; [4]) [µM]	melting point [°C]	growth of active cells of M. smegmatis (M. smegmatis)	MPN, logarithmic transformation of cell concentration (cells/ml) ([1]; time 0 days)	MPN, logarithmic transformation of cell concentration (cells/ml) ([1]; time 14 days)	MPN, logarithmic transformation of cell concentration (cells/ml) ([1]; time 19 days)	MPN, logarithmic transformation of cell concentration (cells/ml) ([1]; time 21 days)	MPN, logarithmic transformation of cell concentration (cells/ml) ([1]; time 23 days)	MPN, logarithmic transformation of cell concentration (cells/ml) ([1]; time 27 days)	MPN, logarithmic transformation of cell concentration (cells/ml) ([1]; time 30 days)	MPN, logarithmic transformation of cell concentration (cells/ml) ([1]; time 33 days)	MPN, logarithmic transformation of cell concentration (cells/ml) ([1]; time 36 days)	MPN, logarithmic transformation of cell concentration (cells/ml) ([1]; time 40 days)	concentrations active in suppressing resuscitation of M. smegmatis [3] [µg/mL]	MIC (Micrococcus luteus) [µg/mL]	IC50 (Rpf Sm) [µM]	further results
COc1ncnc(SC#N)c1[N+](=O)[O-] [I, 4-Methoxy-5-nitro-6-thiocyanatopyrimidine]	had no influence on the resuscitation kinetics	25	54 to 56	–	–	–	–	–	–	–	–	–	–	–	–	–	–	–
CC(C)Nc1ncnc(SC#N)c1[N+](=O)[O-] [II, 4-Isopropylamino-5-nitro-6-thiocyanatopyrimidine]	–	–	96 to 98	–	–	–	–	–	–	–	–	–	–	–	–	–	–	effect on M. luteus growth (Micrococcus luteus): had no effect on M. luteus growth
N#CSc1cc(SC#N)c([N+](=O)[O-])cc1[N+](=O)[O-] [III, 1,5-Dinitro-2,4-dithiocyanatobenzene]	practically did not influence resuscitation	4.25	78 to 80	did not inhibit growth	3.48	3.48	3.86	4.63	4.63	5.66	6.38	6.38	6.38	6.38	0.1 to 1	5 (≈ 17.7 µM)	–	τ1/2, time needed to achieve a 50% level of substrate conversion, Trypsin (Trypsin(3.4.21.4); compound 4 µg/ml): 10 s; τ1/2, time needed to achieve a 50% level of substrate conversion, Trypsin (Trypsin(3.4.21.4); compound 10 µg/ml): 10 s; τ1/2, time needed to achieve a 50% level of substrate conversion, Alchoholdehydrohenase ([2]; compound 4 µg/ml): 1.7 s; τ1/2, time needed to achieve a 50% level of substrate conversion, Alchoholdehydrohenase ([2]; compound 10 µg/ml): 1.7 s; τ1/2, time needed to achieve a 50% level of substrate conversion, Laccase (Laccase(1.10.3.2); compound 4 µg/ml): 3.6 s; τ1/2, time needed to achieve a 50% level of substrate conversion, Laccase (Laccase(1.10.3.2); compound 10 µg/ml): 3.5 s
N#CSc1ccc(C(F)(F)F)cc1[N+](=O)[O-] [IV, 2-Nitro-4-(trifluoromethyl)-phenylthiocyanate]	increased time which need for developing of visible growth in the MPN assay and decreased the final values of MPN	21.4	78 to 81	did not inhibit growth	3.48	3.48	3.56	3.96	4.36	5.38	5.66	5.66	5.66	5.66	0.1 to 1	5 (≈ 20.1 µM)	–	–
COC(=O)c1ccc(SC#N)c([N+](=O)[O-])c1 [IX, 3-Nitro-4-thiocyanatobenzoic acid methyl ester]	increased time which need for developing of visible growth in the MPN assay and decreased the final values of MPN	–	–	did not inhibit growth	3.48	3.48	3.48	3.56	3.96	4.32	5.66	5.66	5.66	5.66	0.1 to 1	5 to 10 (≈ 21 to 42 µM)	23.5	–
N#CSc1ccc(C#N)cc1[N+](=O)[O-] [V, 3-Nitro-4-thiocyanobenzonitryl]	–	–	143 to 145	–	3.48	3.48	3.48	3.48	3.48	3.86	4.30	5.66	5.66	5.66	–	1 to 5 (≈ 4.87 to 24.4 µM)	25.3	–
CC(=O)c1ccc(SC#N)c([N+](=O)[O-])c1 [VI, 4-Acetyl-2-nitrophenyl thiocyanate]	–	–	96 to 98	–	3.48	3.48	3.48	3.48	3.56	3.96	4.66	5.38	5.97	6.18	–	5 (≈ 22.5 µM)	9.9	–
N#CSc1ccc(C(=O)O)cc1[N+](=O)[O-] [VIII, 3-Nitro-4-thiocyanatobenzoic acid]	had no influence on the resuscitation kinetics	–	220 to 224	–	–	–	–	–	–	–	–	–	–	–	–	–	–	effect on resuscitation of M. smegmatis "non-culturable" cells ([3]; inhibitors at 1 µg/ml, 2 weeks at 37°C): failure; effect on M. luteus growth (Micrococcus luteus): had no effect on M. luteus growth; interaction with the buried tryptophanes of ΔDUFRpfB (ΔDUFRpf B; fluorescence studies): doesn't interact with the buried tryptophanes
CCOC(=O)c1ccc(SC#N)c([N+](=O)[O-])c1 [X, 3-nitro-4-thiocyanatobenzoic acid ethyl ester]	increased time which need for developing of visible growth in the MPN assay and decreased the final values of MPN	10.3	–	–	3.48	3.48	3.48	3.48	3.48	4.36	4.97	5.38	5.38	5.38	–	10 (≈ 39.6 µM)	–	–
[I-].[K+] [iodide, reference compound]	–	–	–	–	–	–	–	–	–	–	–	–	–	–	–	–	–	accessible fraction of ΔDUFRpfB tryptophanes (fa) (ΔDUFRpf B; modified Stern-Volmer equation, excitation 280 nm, emission 340 nm): ~40%
